Data published in ChEMBL document CHEMBL3885861, “Open TG-GATES”.

Species: Rattus norvegicus
Experiment: Open TG-GATES - Regimen: Single
Assay type: toxicity, organism-based, Sprague-Dawley
Parameters: regimen Single, gender Male, age 6 weeks
Details: in vivo, po, 300 mg/kg, route gavage, dose level Middle; for APTT / Bas / Eos / Fbg / Hb / Ht / Lym / MCH / MCHC / MCV / Mono / Neu / PT / Plat / RBC / Ret / WBC: tissue Blood; for KIDNEY_L / KIDNEY_R / KIDNEY_TOTAL: tissue Kidney; for LIVER: tissue Liver; for A/G / ALP / ALT / AST / BUN / CRE / Ca / Cl / DBIL / GLC / IP / K / LDH / Na / PL / RALB / TBIL / TC / TG / TP / gamma-GTP: tissue Plasma

CNC(=C[N+](=O)[O-])NCCSCc1ccc(CN(C)C)o1 [RANITIDINE]
TERMINAL_BW (3 h): 216.6 g | APTT (3 h): 21.3 s | Bas (3 h): 0% | Eos (3 h): 1.2% | Fbg (3 h): 224 mg/dL | Hb (3 h): 13.1 g/dL | Ht (3 h): 38.4% | Lym (3 h): 75.2% | MCH (3 h): 21.7 pg | MCHC (3 h): 34.2% | MCV (3 h): 63.4 fL | Mono (3 h): 2.4% | Neu (3 h): 18.8% | PT (3 h): 12.5 s | Plat (3 h): 125.4 x10_4/uL | RBC (3 h): 606 x10_4/ul | Ret (3 h): 6.6% | WBC (3 h): 93.9 x10_2/uL | KIDNEY_L (3 h): 1 g | KIDNEY_R (3 h): 1 g | KIDNEY_TOTAL (3 h): 2 g | LIVER (3 h): 9.9 g | A/G (3 h): 1.7 | ALP (3 h): 1000.2 IU/L | ALT (3 h): 34.4 IU/L | AST (3 h): 63.8 IU/L | BUN (3 h): 10.2 mg/dL | CRE (3 h): 0.4 mg/dL | Ca (3 h): 10.7 mg/dL | Cl (3 h): 103.8 meq/L | DBIL (3 h): 0.07 mg/dL | GLC (3 h): 195.6 mg/dL | IP (3 h): 8.4 mg/dL | K (3 h): 3.8 meq/L | LDH (3 h): 141.6 IU/L | Na (3 h): 141.6 meq/L | PL (3 h): 141.2 mg/dL | RALB (3 h): 3.4 g/dL | TBIL (3 h): 0.1 mg/dL | TC (3 h): 74.2 mg/dL | TG (3 h): 48 mg/dL | TP (3 h): 5.5 g/dL | gamma-GTP (3 h): 0.8 IU/L | TERMINAL_BW (6 h): 214.7 g | APTT (6 h): 18.8 s | Bas (6 h): 0% | Eos (6 h): 1% | Fbg (6 h): 220.8 mg/dL | Hb (6 h): 13.1 g/dL | Ht (6 h): 37.8% | Lym (6 h): 72.6% | MCH (6 h): 21.6 pg | MCHC (6 h): 34.7% | MCV (6 h): 62.4 fL | Mono (6 h): 2.4% | Neu (6 h): 19.8% | PT (6 h): 12.6 s | Plat (6 h): 119.8 x10_4/uL | RBC (6 h): 605 x10_4/ul | Ret (6 h): 6.9% | WBC (6 h): 82.1 x10_2/uL | KIDNEY_L (6 h): 1 g | KIDNEY_R (6 h): 1 g | KIDNEY_TOTAL (6 h): 1.9 g | LIVER (6 h): 9.2 g | A/G (6 h): 1.6 | ALP (6 h): 918.8 IU/L | ALT (6 h): 36.6 IU/L | AST (6 h): 69.6 IU/L | BUN (6 h): 8.4 mg/dL | CRE (6 h): 0.4 mg/dL | Ca (6 h): 10.4 mg/dL | Cl (6 h): 103.6 meq/L | DBIL (6 h): 0.06 mg/dL | GLC (6 h): 193.4 mg/dL | IP (6 h): 8.5 mg/dL | K (6 h): 3.8 meq/L | LDH (6 h): 111.4 IU/L | Na (6 h): 140.4 meq/L | PL (6 h): 129.2 mg/dL | RALB (6 h): 3.3 g/dL | TBIL (6 h): 0.1 mg/dL | TC (6 h): 69.2 mg/dL | TG (6 h): 43.2 mg/dL | TP (6 h): 5.4 g/dL | gamma-GTP (6 h): 1.4 IU/L | TERMINAL_BW (9 h): 211.5 g | APTT (9 h): 19.5 s | Bas (9 h): 0% | Eos (9 h): 1% | Fbg (9 h): 241 mg/dL | Hb (9 h): 13.3 g/dL | Ht (9 h): 38.2% | Lym (9 h): 67.8% | MCH (9 h): 21.6 pg | MCHC (9 h): 34.7% | MCV (9 h): 62.3 fL | Mono (9 h): 2.6% | Neu (9 h): 26% | PT (9 h): 12.7 s | Plat (9 h): 116.8 x10_4/uL | RBC (9 h): 614.4 x10_4/ul | Ret (9 h): 7.2% | WBC (9 h): 76 x10_2/uL | KIDNEY_L (9 h): 1 g | KIDNEY_R (9 h): 1 g | KIDNEY_TOTAL (9 h): 1.9 g | LIVER (9 h): 9.2 g | A/G (9 h): 1.6 | ALP (9 h): 741.8 IU/L | ALT (9 h): 32 IU/L | AST (9 h): 61 IU/L | BUN (9 h): 9.8 mg/dL | CRE (9 h): 0.4 mg/dL | Ca (9 h): 10.5 mg/dL | Cl (9 h): 103.8 meq/L | DBIL (9 h): 0.074 mg/dL | GLC (9 h): 204.6 mg/dL | IP (9 h): 8.4 mg/dL | K (9 h): 3.6 meq/L | LDH (9 h): 120.6 IU/L | Na (9 h): 141.6 meq/L | PL (9 h): 143.8 mg/dL | RALB (9 h): 3.4 g/dL | TBIL (9 h): 0.1 mg/dL | TC (9 h): 76.4 mg/dL | TG (9 h): 46 mg/dL | TP (9 h): 5.6 g/dL | gamma-GTP (9 h): 1.4 IU/L | TERMINAL_BW (24 h): 230.2 g | APTT (24 h): 23.9 s | Bas (24 h): 0% | Eos (24 h): 1% | Fbg (24 h): 225.4 mg/dL | Hb (24 h): 13.6 g/dL | Ht (24 h): 38.7% | Lym (24 h): 80.6% | MCH (24 h): 22.5 pg | MCHC (24 h): 35% | MCV (24 h): 64.2 fL | Mono (24 h): 2.4% | Neu (24 h): 14% | PT (24 h): 12.3 s | Plat (24 h): 125.9 x10_4/uL | RBC (24 h): 603.2 x10_4/ul | Ret (24 h): 6.3% | WBC (24 h): 104.2 x10_2/uL | KIDNEY_L (24 h): 1 g | KIDNEY_R (24 h): 1 g | KIDNEY_TOTAL (24 h): 2 g | LIVER (24 h): 11.2 g | A/G (24 h): 1.7 | ALP (24 h): 1036.4 IU/L | ALT (24 h): 33.4 IU/L | AST (24 h): 63.2 IU/L | BUN (24 h): 15.8 mg/dL | CRE (24 h): 0.4 mg/dL | Ca (24 h): 10.7 mg/dL | Cl (24 h): 102.2 meq/L | DBIL (24 h): 0.086 mg/dL | GLC (24 h): 196.6 mg/dL | IP (24 h): 7.6 mg/dL | K (24 h): 4 meq/L | LDH (24 h): 132.6 IU/L | Na (24 h): 140 meq/L | PL (24 h): 152.8 mg/dL | RALB (24 h): 3.4 g/dL | TBIL (24 h): 0.1 mg/dL | TC (24 h): 79.2 mg/dL | TG (24 h): 78.6 mg/dL | TP (24 h): 5.3 g/dL | gamma-GTP (24 h): 1 IU/L
